Results from ChEMBL document CHEMBL5584294, “Adpressins A-G: Oligophenalenone Dimers from Talaromyces adpressus” (J Nat Prod, 2024).

Tests used:
T-cell [1] = assay: Immunosuppressive activity in BALB/c mouse T-lymphocytes assessed as inhibition of ConA-induced cell proliferation pretreated with Concanavalin A for 24 hrs followed by compound addition and measured after 48 hrs by CCK-8 assay; format: functional, cell-based
B-cell line = assay: Immunosuppressive activity in BALB/c mouse B-lymphocytes assessed as inhibition of LPS-induced cell proliferation pretreated with LPS for 24 hrs followed by compound addition and measured after 48 hrs by CCK-8 assay; format: functional, cell-based
T-cell [2] = assay: (§1) Immunosuppressive activity in BALB/c mouse T-lymphocytes assessed as reduction in ConA-induced CD4 subpopulation by measuring CD3positiveCD4positive cells at 5 uM pretreated with Concanavalin A for 24 hrs followed by compound addition and measured after 48 hrs by flow cytometry analysis (reference value: 87.8%); format: functional; design: scale not given: the % may be the effect or the level left
T-cell [3] = assay: as §1, with “CD3negativeCD4positive” for “CD3positiveCD4positive”, “0%)” for “87.8%)”; format: functional; design: scale not given: the % may be the effect or the level left
T-cell [4] = assay: as §1, with “CD8” for “CD4”, “CD3positiveCD8positive” for “CD3positiveCD4positive”, “29.1%)” for “87.8%)”; format: functional; design: scale not given: the % may be the effect or the level left
T-cell [5] = assay: as §1, with “CD3positiveCD4negative” for “CD3positiveCD4positive”, “10” for “5”, “12.2%)” for “87.8%)”; format: functional; design: scale not given: the % may be the effect or the level left
T-cell [6] = assay: as §1, with “10” for “5”; format: functional; design: scale not given: the % may be the effect or the level left
T-cell [7] = assay: as §1, with “CD3positiveCD4negative” for “CD3positiveCD4positive”, “12.2%)” for “87.8%)”; format: functional; design: scale not given: the % may be the effect or the level left
T-cell [8] = assay: (§2) Immunosuppressive activity in ConA-induced BALB/c mouse T-lymphocytes assessed as Treg cell subsets by measuring CD25negativeFOXP3negative cells at 5 uM pretreated with Concanavalin A for 24 hrs followed by compound addition and measured after 48 hrs by flow cytometry analysis (reference value: 27.2%); format: functional
T-cell [9] = assay: as §1, with “CD8” for “CD4”, “CD3positiveCD8negative” for “CD3positiveCD4positive”, “10” for “5”, “70.9%)” for “87.8%)”; format: functional; design: scale not given: the % may be the effect or the level left
T-cell [10] = assay: as §1, with “CD3negativeCD4negative” for “CD3positiveCD4positive”, “10” for “5”, “0%)” for “87.8%)”; format: functional; design: scale not given: the % may be the effect or the level left
T-cell [11] = assay: as §1, with “CD3negativeCD4positive” for “CD3positiveCD4positive”, “10” for “5”, “0%)” for “87.8%)”; format: functional; design: scale not given: the % may be the effect or the level left
T-cell [12] = assay: as §1, with “CD8” for “CD4”, “CD3negativeCD8negative” for “CD3positiveCD4positive”, “10” for “5”, “0%)” for “87.8%)”; format: functional; design: scale not given: the % may be the effect or the level left
T-cell [13] = assay: as §1, with “CD8” for “CD4”, “CD3negativeCD8positive” for “CD3positiveCD4positive”, “0%)” for “87.8%)”; format: functional; design: scale not given: the % may be the effect or the level left
T-cell [14] = assay: as §2, with “CD25positiveFOXP3positive” for “CD25negativeFOXP3negative”, “5.7%)” for “27.2%)”; format: functional
T-cell [15] = assay: as §2, with “CD25positiveFOXP3negative” for “CD25negativeFOXP3negative”, “10” for “5”, “66.9%)” for “27.2%)”; format: functional
T-cell [16] = assay: as §2, with “CD25positiveFOXP3positive” for “CD25negativeFOXP3negative”, “10” for “5”, “5.7%)” for “27.2%)”; format: functional
T-cell [17] = assay: as §2, with “CD25negativeFOXP3positive” for “CD25negativeFOXP3negative”, “0.2%)” for “27.2%)”; format: functional
T-cell [18] = assay: as §1, with “CD8” for “CD4”, “CD3negativeCD8negative” for “CD3positiveCD4positive”, “0%)” for “87.8%)”; format: functional; design: scale not given: the % may be the effect or the level left
T-cell [19] = assay: as §1, with “CD8” for “CD4”, “CD3positiveCD8negative” for “CD3positiveCD4positive”, “70.9%)” for “87.8%)”; format: functional; design: scale not given: the % may be the effect or the level left
T-cell [20] = assay: as §1, with “CD8” for “CD4”, “CD3negativeCD8positive” for “CD3positiveCD4positive”, “10” for “5”, “0%)” for “87.8%)”; format: functional; design: scale not given: the % may be the effect or the level left
T-cell [21] = assay: as §2, with “at 10” for “at 5”; format: functional
T-cell [22] = assay: as §2, with “CD25positiveFOXP3negative” for “CD25negativeFOXP3negative”, “66.9%)” for “27.2%)”; format: functional
T-cell [23] = assay: as §2, with “CD25negativeFOXP3positive” for “CD25negativeFOXP3negative”, “10” for “5”, “0.2%)” for “27.2%)”; format: functional
T-cell [24] = assay: as §1, with “CD3negativeCD4negative” for “CD3positiveCD4positive”, “0%)” for “87.8%)”; format: functional; design: scale not given: the % may be the effect or the level left
T-cell [25] = assay: as §1, with “CD8” for “CD4”, “CD3positiveCD8positive” for “CD3positiveCD4positive”, “10” for “5”, “29.1%)” for “87.8%)”; format: functional; design: scale not given: the % may be the effect or the level left

With `CC(=O)O[C@H]1[C@@H]2C(=O)c3c(C)cc(O)c4c3[C@@]1(COC4=O)C1=C2c2c(C)cc(O)c3c2C(C1=O)C1CCCN1C3=O` (some centres undefined) the IC50 (T-cell [1]) was over 40 µM and the IC50 (B-cell line) was over 40 µM.
`CC1(C)C2CCC1(CS(=O)(=O)O)C(=O)C2` (centres undefined) showed an IC50 (T-cell [1]) of under 0.04 µM and an IC50 (B-cell line) of under 0.04 µM.
For `CC(=O)O[C@H]1[C@@H]2C(=O)c3c(C)cc(O)c4c3[C@@]1(COC4=O)c1c(O)cc3cc(O)cc(C)c3c12`, the IC50 (T-cell [1]) was over 40 µM and the IC50 (B-cell line) was over 40 µM.
`CO[C@@H]1N(CCO)C(=O)c2c(O)cc(C)c3c2[C@]1(O)C(=O)C1=C3[C@H]2C(=O)c3c(C)cc(O)c4c3[C@]1(COC4=O)[C@H]2O` showed an Activity (T-cell [2]) of 76.6%, an Activity (T-cell [3]) of 0% and an Activity (T-cell [4]) of 39.5%. It also gave an Activity (T-cell [5]) of 24.1%, an Activity (T-cell [6]) of 75.9% and an Activity (T-cell [7]) of 23.4%. The Activity (T-cell [8]) was 18.1%, the IC50 (T-cell [1]) was 9.3 µM and the Activity (T-cell [9]) was 61.2%. The Activity (T-cell [10]) was 0%, the Activity (T-cell [11]) was 0% and the Activity (T-cell [12]) was 0%. The Activity (T-cell [13]) was 0%, the Activity (T-cell [14]) was 4.6% and the Activity (T-cell [15]) was 76%. The Activity (T-cell [16]) was 2.5%, the Activity (T-cell [17]) was 0.1% and the Activity (T-cell [18]) was 0%. For the same compound, the IC50 (B-cell line) was 2.1 µM, the Activity (T-cell [19]) was 60.5% and the Activity (T-cell [20]) was 0%. The Activity (T-cell [21]) was 21.3%, the Activity (T-cell [22]) was 77.2% and the Activity (T-cell [23]) was 0.3%. It also gave an Activity (T-cell [24]) of 0% and an Activity (T-cell [25]) of 38.8%.
Compound `Cc1cc(O)c2c3c1C(=O)[C@@H]1c4c(c5oc(=O)ccc5c5cc(O)cc(C)c45)[C@@]3(COC2=O)[C@H]1O` has an IC50 (T-cell [1]) of over 40 µM and an IC50 (B-cell line) of over 40 µM.
For `COC(=O)C[C@H]1OC(=O)c2c(O)cc(C)c3c4c(c(O)c1c23)[C@]12COC(=O)c3c(O)cc(C)c(c31)C(=O)[C@H]4[C@@H]2O`, the IC50 (T-cell [1]) was over 40 µM and the IC50 (B-cell line) was over 40 µM.
`COC(=O)C[C@@H]1OC(=O)c2c(O)cc(C)c3c4c(c(O)c1c23)[C@]12COC(=O)c3c(O)cc(C)c(c31)C(=O)[C@H]4[C@@H]2OC(C)=O` showed an IC50 (T-cell [1]) of 12.8 µM and an IC50 (B-cell line) of 8.6 µM.
Work on `Cc1cc(O)c2c3c1C1=C(C(=O)C3C3CCCN3C2=O)[C@]23COC(=O)c4c(O)cc(C)c(c42)C(=O)[C@H]1[C@@H]3O` (some centres undefined) yielded an IC50 (T-cell [1]) of over 40 µM and an IC50 (B-cell line) of over 40 µM.
`COC(=O)C[C@H]1OC(=O)c2c(O)cc(C)c3c4c(c(O)c1c23)[C@]12COC(=O)c3c(O)cc(C)c(c31)C(=O)[C@H]4[C@@H]2OC(C)=O` was tested, and the IC50 (T-cell [1]) was over 40 µM and the IC50 (B-cell line) was over 40 µM.
Compound `CC(=O)O[C@H]1[C@@H]2C(=O)c3c(C)cc(O)c4c3[C@@]1(COC4=O)C1=C2c2c(C)cc(O)c3c2[C@@](O)(COC3=O)C1=O` has an IC50 (T-cell [1]) of over 40 µM and an IC50 (B-cell line) of over 40 µM.
